# Results as given in paper PMC11845477, “Exploring the principles behind antibiotics with limited resistance” (Nature Communications, 2025).
# Columns and labels:
# [1] = tested on: K. pneumoniae ATCC 10031 (SEN) and K. pneumoniae ATCC 700603 (MDR); assay: microbe, parasite or virus in culture; assay type: cell-based, Klebsiella pneumoniae; settings: for MIC: across three biological replicates
# Procedure, shortened: (§1)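 Broth microdilution in cation-adjusted Mueller-Hinton Broth 2 (except SCH79797), 11–16-step serial dilutions, 5 × 10^5 cells/mL, 37 °C with shaking for 18 h, 2 replicates. MIC is the lowest concentration giving complete growth inhibition (OD600 < 0.05); relative MIC = MIC evolved/MIC ancestor.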
# [2] = tested on: A. baumannii ATCC 17978 (SEN) and A. baumannii ATCC BAA-1605 (MDR); assay: microbe, parasite or virus in culture; assay type: cell-based, Acinetobacter baumannii; settings: for MIC: across three biological replicates
# Procedure, shortened: as §1
# [3] = tested on: P. aeruginosa ATCC BAA-3107 (SEN) and P. aeruginosa LESB58 (MDR); assay: microbe, parasite or virus in culture; assay type: cell-based, Pseudomonas aeruginosa; settings: across three biological replicates
# Procedure, shortened: as §1
# [4] = tested on: K. pneumoniae ATCC 10031 (SEN) and K. pneumoniae ATCC 700603 (MDR); assay: Adaptive laboratory evolution (ALE), relative MIC of evolved lines; assay type: cell-based, Klebsiella pneumoniae
# Procedure, shortened: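 Ten parallel populations per antibiotic–ancestor pair were evolved in MHB at 37 °C, starting near 50% growth-inhibiting drug. Every 72 h they were passaged into 0.5–2.5× increasing concentrations, keeping the highest-drug well with OD600 > 0.2.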
# [5] = KP-SEN (Klebsiella pneumoniae ATCC 10031), evolved line 1
# [6] = KP-SEN (Klebsiella pneumoniae ATCC 10031), evolved line 4
# [7] = KP-SEN (Klebsiella pneumoniae ATCC 10031), evolved line 8
# [8] = KP-SEN (Klebsiella pneumoniae ATCC 10031), evolved line 9
# [9] = KP-SEN, Klebsiella pneumoniae ATCC 10031, evolved line 5
smiles,measurement,setting,value
CC(C)c1ccc(Cn2ccc3c4c(N)nc(NC5CC5)nc4ccc32)cc1 [SCH79797],MIC of ancestor,"[1]; Klebsiella pneumoniae ATCC 10031 (KP-SEN), ancestor strain, sheet fig 2a",4 µg/mL
same,MIC,[1]; Klebsiella pneumoniae ATCC 10031 (KP-SEN),4 µg/mL
same,MIC,[1]; Klebsiella pneumoniae ATCC 700603 (KP-MDR),32 µg/mL
same,MIC of ancestor,[1]; ancestor KP-SEN (Klebsiella pneumoniae ATCC 10031),4 µg/mL
same,MIC of ancestor,"[2]; Acinetobacter baumannii ATCC 17978 (AB-SEN), ancestor strain, sheet fig 2a",4 µg/mL
same,MIC,[2]; Acinetobacter baumannii ATCC 17978 (AB-SEN),4 µg/mL
same,MIC of ancestor,"[2]; Acinetobacter baumannii ATCC BAA 1605 (AB-MDR), ancestor strain, sheet fig 2a",4 µg/mL
same,MIC,[2]; Acinetobacter baumannii ATCC BAA-1605 (AB-MDR),4 µg/mL
same,MIC of ancestor,[2]; ancestor AB-MDR (Acinetobacter baumannii ATCC BAA 1605),4 µg/mL
same,MIC of ancestor,[2]; ancestor AB-SEN (Acinetobacter baumannii ATCC 17978),4 µg/mL
same,MIC,[3]; Pseudomonas aeruginosa ATCC BAA-3107 (PA-SEN),32 µg/mL
same,MIC,[3]; Pseudomonas aeruginosa LESB 58 (PA-MDR),>32 µg/mL
same,Relative MIC,"[4]; ALE, Klebsiella pneumoniae ATCC 10031 (KP-SEN), evolved line 1",16
same,Relative MIC,"[4]; ALE, Klebsiella pneumoniae ATCC 10031 (KP-SEN), evolved line 2",4
same,Relative MIC,"[4]; ALE, Klebsiella pneumoniae ATCC 10031 (KP-SEN), evolved line 3",2
same,Relative MIC,"[4]; ALE, Klebsiella pneumoniae ATCC 10031 (KP-SEN), evolved line 4",16
same,Relative MIC,"[4]; ALE, Klebsiella pneumoniae ATCC 10031 (KP-SEN), evolved line 5",32
same,Relative MIC,"[4]; ALE, Klebsiella pneumoniae ATCC 10031 (KP-SEN), evolved line 6",2
same,Relative MIC,"[4]; ALE, Klebsiella pneumoniae ATCC 10031 (KP-SEN), evolved line 7",4
same,Relative MIC,"[4]; ALE, Klebsiella pneumoniae ATCC 10031 (KP-SEN), evolved line 8",8
same,Relative MIC,"[4]; ALE, Klebsiella pneumoniae ATCC 10031 (KP-SEN), evolved line 9",8
same,Relative MIC,"[4]; ALE, Klebsiella pneumoniae ATCC 10031 (KP-SEN), evolved line 10",2
same,MIC of evolved line,"[4]; KP-SEN (K. pneumoniae ATCC 10031), evolved line 1 of the given antibiotic",64 µg/mL
same,Relative MIC,"[4]; KP-SEN (K. pneumoniae ATCC 10031), evolved line 1 vs ancestor",16
same,MIC of evolved line,"[4]; KP-SEN (K. pneumoniae ATCC 10031), evolved line 2 of the given antibiotic",16 µg/mL
same,Relative MIC,"[4]; KP-SEN (K. pneumoniae ATCC 10031), evolved line 2 vs ancestor",4
same,MIC of evolved line,"[4]; KP-SEN (K. pneumoniae ATCC 10031), evolved line 3 of the given antibiotic",8 µg/mL
same,Relative MIC,"[4]; KP-SEN (K. pneumoniae ATCC 10031), evolved line 3 vs ancestor",2
same,MIC of evolved line,"[4]; KP-SEN (K. pneumoniae ATCC 10031), evolved line 4 of the given antibiotic",64 µg/mL
same,Relative MIC,"[4]; KP-SEN (K. pneumoniae ATCC 10031), evolved line 4 vs ancestor",16
same,MIC of evolved line,"[4]; KP-SEN (K. pneumoniae ATCC 10031), evolved line 5 of the given antibiotic",128 µg/mL
same,Relative MIC,"[4]; KP-SEN (K. pneumoniae ATCC 10031), evolved line 5 vs ancestor",32
same,MIC of evolved line,"[4]; KP-SEN (K. pneumoniae ATCC 10031), evolved line 6 of the given antibiotic",8 µg/mL
same,Relative MIC,"[4]; KP-SEN (K. pneumoniae ATCC 10031), evolved line 6 vs ancestor",2
same,MIC of evolved line,"[4]; KP-SEN (K. pneumoniae ATCC 10031), evolved line 7 of the given antibiotic",16 µg/mL
same,Relative MIC,"[4]; KP-SEN (K. pneumoniae ATCC 10031), evolved line 7 vs ancestor",4
same,MIC of evolved line,"[4]; KP-SEN (K. pneumoniae ATCC 10031), evolved line 8 of the given antibiotic",32 µg/mL
same,Relative MIC,"[4]; KP-SEN (K. pneumoniae ATCC 10031), evolved line 8 vs ancestor",8
same,MIC of evolved line,"[4]; KP-SEN (K. pneumoniae ATCC 10031), evolved line 9 of the given antibiotic",32 µg/mL
same,Relative MIC,"[4]; KP-SEN (K. pneumoniae ATCC 10031), evolved line 9 vs ancestor",8
same,MIC of evolved line,"[4]; KP-SEN (K. pneumoniae ATCC 10031), evolved line 10 of the given antibiotic",8 µg/mL
same,Relative MIC,"[4]; KP-SEN (K. pneumoniae ATCC 10031), evolved line 10 vs ancestor",2
same,Relative MIC,[4]; [5],16
same,Relative MIC (log10),[4]; [5],1.204 log10
same,Relative MIC,"[4]; KP-SEN (Klebsiella pneumoniae ATCC 10031), evolved line 2",4
same,Relative MIC,"[4]; KP-SEN (Klebsiella pneumoniae ATCC 10031), evolved line 3",2
same,Relative MIC,[4]; [6],16
same,Relative MIC (log10),[4]; [6],1.204 log10
same,Relative MIC,"[4]; KP-SEN (Klebsiella pneumoniae ATCC 10031), evolved line 6",2
same,Relative MIC,[4]; [7],8
same,Relative MIC (log10),[4]; [7],0.9031 log10
same,Relative MIC,[4]; [8],8
same,Relative MIC (log10),[4]; [8],0.9031 log10
same,Relative MIC,"[4]; KP-SEN (Klebsiella pneumoniae ATCC 10031), evolved line 10",2
same,Relative MIC,[4]; [9],32
same,Relative MIC (log10),[4]; [9],1.505 log10
same,Relative MIC,"[4]; KP-SEN, Klebsiella pneumoniae ATCC 10031, evolved line 7",4
same,Relative MIC,"[4]; Klebsiella pneumoniae ATCC 10031 (KP-SEN), evolved line 1",16
same,Relative MIC,"[4]; Klebsiella pneumoniae ATCC 10031 (KP-SEN), evolved line 2",4
same,Relative MIC,"[4]; Klebsiella pneumoniae ATCC 10031 (KP-SEN), evolved line 3",2
same,Relative MIC,"[4]; Klebsiella pneumoniae ATCC 10031 (KP-SEN), evolved line 4",16
same,Relative MIC,"[4]; Klebsiella pneumoniae ATCC 10031 (KP-SEN), evolved line 5",32
same,Relative MIC,"[4]; Klebsiella pneumoniae ATCC 10031 (KP-SEN), evolved line 6",2
same,Relative MIC,"[4]; Klebsiella pneumoniae ATCC 10031 (KP-SEN), evolved line 7",4
same,Relative MIC,"[4]; Klebsiella pneumoniae ATCC 10031 (KP-SEN), evolved line 8",8
same,Relative MIC,"[4]; Klebsiella pneumoniae ATCC 10031 (KP-SEN), evolved line 9",8
same,Relative MIC,"[4]; Klebsiella pneumoniae ATCC 10031 (KP-SEN), evolved line 10",2
